Activity calls are given as the source filed them. No cut-off for these calls is given here.

Chain of Mu-type opioid receptor (Cavia porcellus) (P97266 whole entry): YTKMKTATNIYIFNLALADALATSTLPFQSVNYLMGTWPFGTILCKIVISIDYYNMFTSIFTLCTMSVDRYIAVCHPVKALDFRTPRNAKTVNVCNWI

In the first experiment the target is Mu-type opioid receptor (Cavia porcellus, UniProt P97266). In words: Mu opioid receptor agonist activity as inhibition of electrically stimulated mysenteric plexus in guinea pig ileum. Format: functional, tissue-based.
Chain of Mu-type opioid receptor (P97266 whole entry): as above
Conditions: not given
As usually defined, the IC50 is the midpoint of a concentration-inhibition curve. Regarding `CSCC[C@H](NC(=O)[C@H](Cc1ccccc1)NC(=O)CNC(=O)CNC(=O)C1CC2(C)c3cc(O)ccc3CC(C2C)N1C)C(N)=O` (some centres not stated), the IC50 came to 7970 nM. Consider `CSCC[C@H](NC(=O)[C@H](Cc1ccccc1)NC(=O)CNC(=O)[C@@H](C)NC(=O)[C@@H](N)Cc1ccc(O)cc1)C(N)=O`, for which the IC50 turned out to be 17.4 nM. Same read-out and setting: under `CC1C2Cc3ccc(O)cc3C1(C)CC(C(N)=O)N2C` (single isomer, unassigned; (-)) [listing 1 of 2 here] stands 6090 nM; under `CC1C2(C)CCN(C)C1(C(N)=O)Cc1ccc(O)cc12` (single isomer, unassigned; (-)) [listing 1 of 2 here], 2820 nM. Same read-out and setting: under `CC1C2Cc3ccc(O)cc3C1(C)CC(C#N)N2C` (single isomer, unassigned; form 1) stands 510 nM. The same measure, in the same setting: the result for `CC1C2Cc3ccc(O)cc3C1(C)CC(C#N)N2C` (single isomer, unassigned; form 2) reads 510 nM. In turn, `C[C@H]1[C@@H]2Cc3ccc(O)cc3[C@]1(C)CCN2C` [METAZOCINE] showed an IC50 of 94 nM.

The next experiment addresses Mu-type opioid receptor (Cavia porcellus) (UniProt P97266). In words: Mu opioid receptor agonist activity was determined by inhibition of electrically stimulated myenteric plexus in guinea pig ileum. Format: functional, tissue-based.
Conditions: not given
As to `CSCC[C@H](NC(=O)[C@H](Cc1ccccc1)NC(=O)CNC(=O)[C@@H](C)NC(=O)[C@@H](N)Cc1ccc(O)cc1)C(N)=O`, the Relative potency amounted to 329. On the same count and under the same terms, under `CSCC[C@@H](NC(=O)[C@H](Cc1ccccc1)NC(=O)CNC(=O)CNC(=O)C1CC2(C)c3cc(O)ccc3CC(C2C)N1C)C(N)=O` (some centres not stated) stands 0.007; under `CC1C2(C)CCN(C)C1(C(N)=O)Cc1ccc(O)cc12` (single isomer, unassigned; (-)) [listing 2 of 2 here], 0.02; under `CC1C2Cc3ccc(O)cc3C1(C)CC(C(N)=O)N2C` (single isomer, unassigned; (-)) [listing 2 of 2 here], 0.009.

For the next experiment the target is unchanged. In words: Mu opioid receptor agonist activity was determined by inhibition of electrically stimulated myenteric plexus in guinea pig ileum; Inactive. Format: functional, tissue-based.
Conditions: not given
Consider `CC1C2(C)CCN(C)C1(C(N)=O)Cc1ccc(O)cc12` (configuration not stated), for which the Relative potency result is “inactive”.

For the compound `CC1C2(C)CCN(C)C1(C#N)Cc1ccc(O)cc12` (racemic), the Relative potency entry is “inactive”. Still for that read-out and setting: the result for `CC1C2Cc3ccc(O)cc3C1(C)CC(C(N)=O)N2C` (single isomer, unassigned; (+)) reads “inactive”; that for `CSCC[C@@H](NC(=O)[C@H](Cc1ccccc1)NC(=O)CNC(=O)CNC(=O)C12Cc3ccc(O)cc3C(C)(CCN1C)C2C)C(N)=O` (single isomer, unassigned; (+)), “inactive”. The same measure, in the same setting: under `CSCC[C@@H](NC(=O)[C@H](Cc1ccccc1)NC(=O)CNC(=O)CNC(=O)C1CC2(C)c3cc(O)ccc3CC(C2C)N1C)C(N)=O` (single isomer, unassigned; (+)) stands “inactive”.

Another experiment has the same target. Nature of the experiment: Mu opioid receptor agonist activity was determined by inhibition of electrically stimulated myenteric plexus in guinea pig ileum; Inactive, weak antagonism with agonist morphine PA2 of <6. Format: functional, tissue-based. As to conditions: filed as antagonist.
Take `CSCC[C@@H](NC(=O)[C@H](Cc1ccccc1)NC(=O)CNC(=O)CNC(=O)C12Cc3ccc(O)cc3C(C)(CCN1C)C2C)C(N)=O` (single isomer, unassigned; (-)): the Relative potency result is recorded as “Partial antagonist”.

Values taken from ChEMBL document CHEMBL1121981, “Synthesis and biological evaluation of a metazocine-containing enkephalinamide. Evidence for nonidentical roles of the tyramine moiety in opiates and opioid peptides” (J Med Chem, 1982).
